{"source": "patent US20260061066A1", "about": "“ANTI-GRP78 ANTIBODY, IMMUNOCONJUGATE AND USES THEREOF” (UCT BIOSCIENCE CO., LTD., priority 2024, published 2026)", "key": {"H460": {"system": "H460", "assay": "In-vitro cytotoxicity, CCK-8 assay", "assay_type": "cell-based", "details": "H460 (lung cancer); cell viability after 48 hours"}, "THP-1 cells": {"system": "THP-1 cells", "assay": "In-vitro cytotoxicity, CCK-8 assay", "assay_type": "cell-based, human", "details": "THP-1 (AML), cell viability after 48 hours", "description": "(§1) In-Vitro cytotoxicity assays of GID10-ADC, DM1 and GID10 on HL-60, HCC1806, MDA-MB-231, Raji, RPMI8226, NCI-H929, MM.1S, G-361, THP-1, PL45, AsPC-1, KLM-1, OV90, 4Tl and EL-4 cells. Cell viability was measured after 48 hours using Cell Counting Kit-8 (CCK-8) assay (DOJINDO™, Cat. No. CK04-13), as shown in Table 3. For example, on Day 0, THP-1 cells were seeded at […] cells per well in a 96-well plate and treated with diluted test compounds. The cells were incubated for 48 hours at 37° C. with 5% CO2. On Day 2, 20 μl of CCK-8 was added to each well, followed by incubation for 1-4 hours. Absorbance at 450 nm was then measured to assess cell viability and the impact of the test compounds. […] Cell viability was measured after 48 hours using the Cell Counting Kit-8 (CCK-8) assay (DOJINDO™, Cat. No. CK04-13). IC50 (M) was calculated to determine the efficacy of the antibody, DM1, and ADC on the various cancer cell lines.\n(§2) In-Vitro cytotoxicity assays of Dxd-conjugated ADC and free payload Dxd on THP-1, NCI-N87, Capan-1, and KLM-1 cells. Cell viability was measured after 48 hours using Cell Counting Kit-8 (CCK-8) assay (DOJINDO™, Cat. No. CK04-13), as shown in Table 4. […] Absorbance at 450 nm was then measured to assess cell viability and the impact of the test compounds. […] Cell viability was measured after 48 hours using the Cell Counting Kit-8 (CCK-8) assay (DOJINDO™, Cat. No. CK04-13). […]"}, "MM.1S": {"system": "MM.1S", "assay": "In-vitro cytotoxicity, CCK-8 assay", "assay_type": "cell-based", "details": "MM.1S (MM); cell viability after 48 hours", "description": "(§3) In-Vitro cytotoxicity assays of GID10-ADC, DM1 and GID10 on HL-60, HCC1806, MDA-MB-231, Raji, RPMI8226, NCI-H929, MM.1S, G-361, THP-1, PL45, AsPC-1, KLM-1, OV90, 4Tl and EL-4 cells. Cell viability was measured after 48 hours using Cell Counting Kit-8 (CCK-8) assay (DOJINDO™, Cat. No. CK04-13), as shown in Table 3. For example, on Day 0, THP-1 cells were seeded at […] cells per well in a 96-well plate and treated with diluted test compounds. The cells were incubated for 48 hours at 37° C. with 5% CO2. On Day 2, 20 μl of CCK-8 was added to each well, followed by incubation for 1-4 hours. Absorbance at 450 nm was then measured to assess cell viability and the impact of the test compounds. For suspension cells, such as HL-60, Raji, RPMI8226, NCI-H929, MM. 1S, and THP-1, 5×10^4 cells per well were inoculated into a 96-well plate. For adherent cells, such as HCC1806, MDA-MB-231, G361, PL45, AsPC-1, KLM-1, OV90, and EL-4, 1.5-5×10^3 cells per well were inoculated based on their doubling time. Adherent cells with a doubling time of less than 24 hours were seeded at 1.5×10^3 cells per well (EL-4), while those with a doubling time of more than 24 hours were seeded at 5×10^3 cells per well. […] DM1 was used as the positive control agent. The cell lines tested included HL-60, HCC1806, MDA-MB-231, Raji, RPMI8226, NCI-H929, MM.1S, G-361, THP-1, PL45, AsPC-1, KLM-1, OV90, 4T1, and EL-4 cells. Cell viability was measured after 48 hours using the Cell Counting Kit-8 (CCK-8) assay (DOJINDO™, Cat. No. CK04-13). IC50 (M) was calculated to determine the efficacy of the antibody, DM1, and ADC on the various cancer cell lines."}, "RPMI8226": {"system": "RPMI8226", "assay": "In-vitro cytotoxicity, CCK-8 assay", "assay_type": "cell-based", "details": "RPMI8226 (MM); cell viability after 48 hours", "description": "as §3"}, "MDA-MB-231": {"system": "MDA-MB-231", "assay": "In-vitro cytotoxicity, CCK-8 assay", "assay_type": "cell-based", "details": "MDA-MB-231 (TNBC); cell viability after 48 hours", "description": "as §3"}, "EL4": {"system": "EL4", "assay": "In-vitro cytotoxicity, CCK-8 assay", "assay_type": "cell-based", "details": "EL4 (murine lymphoma); cell viability after 48 hours", "description": "as §3"}, "OV90": {"system": "OV90", "assay": "In-vitro cytotoxicity, CCK-8 assay", "assay_type": "cell-based", "details": "OV90 (ovarian cancer); cell viability after 48 hours", "description": "as §3"}, "Raji": {"system": "Raji", "assay": "In-vitro cytotoxicity, CCK-8 assay", "assay_type": "cell-based", "details": "Raji (DLBCL); cell viability after 48 hours", "description": "as §3"}, "HCC1806": {"system": "HCC1806", "assay": "In-vitro cytotoxicity, CCK-8 assay", "assay_type": "cell-based", "details": "HCC1806 (TNBC); cell viability after 48 hours", "description": "as §3"}, "4T1": {"system": "4T1", "assay": "In-vitro cytotoxicity, CCK-8 assay", "assay_type": "cell-based", "details": "4T1 (murine breast cancer, stage IV); cell viability after 48 hours", "description": "as §3"}, "ASPC1": {"system": "ASPC1", "assay": "In-vitro cytotoxicity, CCK-8 assay", "assay_type": "cell-based", "details": "ASPC1 (pancreatic cancer); cell viability after 48 hours", "description": "as §3"}, "G361": {"system": "G361", "assay": "In-vitro cytotoxicity, CCK-8 assay", "assay_type": "cell-based", "details": "G361 (melanoma); cell viability after 48 hours", "description": "as §3"}, "NCI-H929": {"system": "NCI-H929", "assay": "In-vitro cytotoxicity, CCK-8 assay", "assay_type": "cell-based", "details": "NCI-H929 (MM); cell viability after 48 hours", "description": "as §3"}, "KLM-1": {"system": "KLM-1", "assay": "In-vitro cytotoxicity, CCK-8 assay", "assay_type": "cell-based", "details": "KLM-1 (pancreatic cancer), cell viability after 48 hours", "description": "as §1, §2"}, "[1]": {"target": "cell surface glucose-related protein 78 (GRP78) on cancer cell lines (human) (UniProt P11021)", "sequence (P11021 19-654)": "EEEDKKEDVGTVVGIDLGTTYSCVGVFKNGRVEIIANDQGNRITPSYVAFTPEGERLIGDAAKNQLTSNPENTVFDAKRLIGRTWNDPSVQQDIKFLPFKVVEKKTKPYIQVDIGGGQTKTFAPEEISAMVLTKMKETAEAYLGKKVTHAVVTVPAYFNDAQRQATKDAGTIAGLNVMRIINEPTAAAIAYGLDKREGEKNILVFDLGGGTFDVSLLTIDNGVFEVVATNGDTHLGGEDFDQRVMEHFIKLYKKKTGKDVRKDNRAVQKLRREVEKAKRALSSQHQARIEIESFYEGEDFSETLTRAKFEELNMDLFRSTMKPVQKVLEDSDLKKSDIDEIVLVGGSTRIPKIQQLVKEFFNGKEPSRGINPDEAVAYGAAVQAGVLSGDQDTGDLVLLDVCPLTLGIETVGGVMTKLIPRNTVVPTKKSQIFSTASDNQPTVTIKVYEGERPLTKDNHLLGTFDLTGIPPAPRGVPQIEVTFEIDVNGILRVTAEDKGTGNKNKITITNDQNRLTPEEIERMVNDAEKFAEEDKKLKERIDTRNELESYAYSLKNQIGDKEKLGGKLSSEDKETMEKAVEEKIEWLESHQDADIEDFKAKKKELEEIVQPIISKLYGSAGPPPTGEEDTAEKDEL", "assay": "flow cytometry, OVCAR3 cells; A488-anti-mouse-IgG alone 1.8%"}, "Capan-1": {"system": "Capan-1", "assay": "In-vitro cytotoxicity, CCK-8 assay", "assay_type": "cell-based", "details": "Capan-1 (pancreatic cancer); cell viability after 48 hours", "description": "(§4) In-Vitro cytotoxicity assays of Dxd-conjugated ADC and free payload Dxd on THP-1, NCI-N87, Capan-1, and KLM-1 cells. Cell viability was measured after 48 hours using Cell Counting Kit-8 (CCK-8) assay (DOJINDO™, Cat. No. CK04-13), as shown in Table 4. For example, on Day 0, THP-1 cells were seeded at 5×10^4 cells per well in a 96-well plate and treated with diluted test compounds. The cells were incubated for 48 hours at 37° C. with 5% CO2. On Day 2, 15 μl of CCK-8 was added to each well, followed by incubation for 1-4 hours. Absorbance at 450 nm was then measured to assess cell viability and the impact of the test compounds. For suspension cells, such as THP-1, 2-5×10^4 cells per well were inoculated into a 96-well plate. For adherent cells, such as NCI-N87, Capan-1, and KLM-1, 1.5-5×10^3 cells per well were inoculated based on their doubling time. As shown in FIGS. 6A-6C, THP-1, and KLM-1 cells are not killed in the presence of G1D10 antibody alone. […] Linker-Dxd was used as the positive control agent. The cell lines tested included THP-1, NCI-N87, Capan-1, and KLM-1 cells. Cell viability was measured after 48 hours using the Cell Counting Kit-8 (CCK-8) assay (DOJINDO™, Cat. No. CK04-13). IC50 (M) was calculated to determine the efficacy of the Linker-Dxd and the Dxd-conjugated ADC on the various cancer cell lines."}, "NCI-N87": {"system": "NCI-N87", "assay": "In-vitro cytotoxicity, CCK-8 assay", "assay_type": "cell-based", "details": "NCI-N87 (gastric cancer); cell viability after 48 hours", "description": "as §4"}}}
{"compound": "COc1cc2cc(c1Cl)N(C)C(=O)C[C@H](OC(=O)[C@H](C)N(C)C(=O)CCS)[C@]1(C)O[C@H]1[C@H](C)[C@@H]1C[C@@](O)(NC(=O)O1)[C@H](OC)/C=C/C=C(\\C)C2", "note": "[DM1, emtansine (DM1)]", "values": [{"measurement": "IC50", "setting": "H460", "value": 1.68, "unit": "nM"}, {"measurement": "IC50", "setting": "THP-1 cells; Table 3", "value": 4.63, "unit": "nM"}, {"measurement": "IC50", "setting": "MM.1S", "value": 4.86, "unit": "nM"}, {"measurement": "IC50", "setting": "RPMI8226", "value": 1.79, "unit": "nM"}, {"measurement": "IC50", "setting": "MDA-MB-231", "value": 28.5, "unit": "nM"}, {"measurement": "IC50", "setting": "EL4", "value": 1.52, "unit": "nM"}, {"measurement": "IC50", "setting": "OV90", "value": 55.2, "unit": "nM"}, {"measurement": "IC50", "setting": "Raji", "value": 4.35, "unit": "nM"}, {"measurement": "IC50", "setting": "HCC1806", "value": 27.2, "unit": "nM"}, {"measurement": "IC50", "setting": "4T1", "value": 83, "unit": "nM"}, {"measurement": "IC50", "setting": "ASPC1", "value": 60.2, "unit": "nM"}, {"measurement": "IC50", "setting": "G361", "value": 3.11, "unit": "nM"}, {"measurement": "IC50", "setting": "NCI-H929", "value": 1.13, "unit": "nM"}, {"measurement": "IC50", "setting": "KLM-1; Table 3", "value": 1.61, "unit": "nM"}]}
{"compound": "anti-GRP78 antibody C38 (eBioscience, Cat. No. 14-9768-82)", "values": [{"measurement": "% (flow cytometry cell surface staining)", "setting": "[1]", "value": 2.3, "unit": "%"}]}
{"compound": "N-hydrozysuccinimide (NHS)-VC-para-aminobenzyl carbamate (PABC)-Dxd [Linker-Dxd]", "values": [{"measurement": "IC50", "setting": "Capan-1", "value": 296, "unit": "nM"}, {"measurement": "IC50", "setting": "NCI-N87", "value": 161, "unit": "nM"}, {"measurement": "IC50", "setting": "THP-1 cells; Table 4", "value": 61.2, "unit": "nM"}, {"measurement": "IC50", "setting": "KLM-1; Table 4", "value": 184, "unit": "nM"}]}
